Test results published in patent US12410153B2, “Compounds, compositions and methods” (Avalo Therapeutics, Inc., priority 2014, dated 2025).

What was measured:
[1] = Respiratory effects in anesthetized dogs, 5-min IV infusion; type: in vivo, dog; conditions: dog, plasma, 3 mg/kg
Protocol: (§1) Respiratory effects were investigated in rats and dogs. […] Mean Form II plasma concentration was approximately 30 μM (10600 ng/mL) at the end of infusion and approximately 4 μM (1250 ng/mL) at 60 min post-infusion.

dogs = assay: as above; type: in vivo, dog; conditions: 3 mg/kg, monitored 60 min
Protocol: as §1

Structure (SMILES): Cc1ccc(COC(=O)N2CC[C@H](CNc3ncccn3)[C@H](F)C2)cc1 [Form II, 4-methylbenzyl (3S, 4R)-3-fluoro-4-[(pyrimidin-2-ylamino)methyl] piperidine-1-carboxylate]
- concentration at 60 min ([1]; read-out: mean plasma concentration at 60 min post-infusion): ~4 µM
- concentration at 5 min ([1]; read-out: mean plasma concentration at the end of infusion): ~30 µM
- respiratory parameters and blood pH, pCO2, pO2 (dogs): did not affect
